Each structure is given as a SMILES string. Where two headings read alike, the source gives them in different places.

Data set [1] has as its system breast cancer cell line ZR-75-1. The data set can be described thus: Inhibition of proliferation of breast cancer cell line ZR-75-1 (CellTiter-Glo). The class given is cell-based. To be noted: Homo sapiens, 240 h, proliferation of ZR-75-1 cells, 10 days of incubation, read-out: IC50 (KAT6A). The text has this: Test Example 1: Experiment for Determining Inhibitory Effects of Compounds on Proliferation of Breast Cancer Cell Line ZR-75-1
ATP is an indicator of the metabolism of living cells. The CellTiter-Glo® Luminescent Cell Viability Assay is a homogeneous assay method for determining the number of viable cells by quantifying ATP.
• 1) ZR-75-1 (Cell Bank of Chinese Academy of Sciences, TCHul26) • 2) RPMI-1640 medium (Gibco, 11875-093) • 3) Fetal Bovine Serum, New Zealand (Gibco,10091-148) • 4) Penicillin-streptomycin (10,000 U/mL) (Gibco, 15140-122) • 5) Trypsin-EDTA (0.25%), containing phenol red (Gibco, 25200-072) • 6) DPBS (Shanghai BasalMedia, B210KJ) • 7) Corning® 96-well Clear Flat Bottom Ultra-Low Attachment Microplate (Corning, Cat. No. 3474) • 8) 330 μL 96 Holes Deep Well Plate, transparents, 96 Round Holes, V-shaped Bottom, Low Retention (Stellar Scientific, DP33VR-9-NS) • 9) Corning® 96-well solid white flat-bottom polystyrene microplate (Corning, Cat. No. 3917) • 10) CellTiter-Glo® Luminescent Cell Viability Assay (Promega, G7573) • 11) Countstar® BioMed automatic cell counter • 12) Trypan blue solution, 0.4% (Gibco, Cat. No. 15250061) • 13) 37° C. constant-temperature incubator (Thermo, FORMA STERI-CYCLE i160 LK) • 14) Biosafety cabinet (Thermo, 1379)
• 1) The formula of the complete medium for ZR-75-1 was as follows: 500 mL RPMI-1640+10% FBS+1% penicillin-streptomycin. • 2) Thirty minutes before cell plating, the complete medium, serum, trypsin, and DPBS for use in ZR-75-1 cell culture were pre-warmed in a water bath at 37° C. • 3) The ZR-75-1 cells were taken out of the incubator, and the medium was removed by pipetting. The cells were rinsed once with 5 mL of DPBS, and then the DPBS was discarded. • 4) The cells in the T75 culture flask were digested with 1-3 mL of (0.25%) trypsin-EDTA. After the trypsin was added, the culture flask was incubated in an incubator at 37° C. for 2-5 min, and dispersion was confirmed by microscopic examination. Tapping or agitating the culture flask was avoided to prevent disturbing the cells, which might cause cell clumping. • 5) 9 mL of the complete medium was added to terminate the digestion, thus forming a cell suspension, which was then mixed well by pipetting. • 6) Cell suspension counting: 20 μL of the cell suspension was pipetted and diluted with 20 µL of the 0.4% trypan blue solution (Gibco, Cat. No. 15250061). The total cell count and the percentage of cell viability were determined using the Countstar® BioMed automatic cell counter. Only cells with a cell viability of no less than 95% were used for the experiment. • 7) The concentration of the cell suspension was adjusted to 2000 cells/well, and the cell suspension was added to a 96-well cell culture plate at 80 μL/well. Treatment of Cells with Compounds • 1) Twenty-four hours after cell plating, the cell plate was taken out. • 2) Each compound was prepared with a complete medium. The stock solution was a 10 mM solution in DMSO, which was first diluted with the medium to 100 μM, then diluted to 1 μM, and finally subjected to a 5-fold serial dilution across a total of 9 concentration gradients. • 3) 20 μL of the compound diluted with the medium was added to each well of the cell culture plate, which already contained 80 μL of the medium. The final concentration started at 200 nM, followed by a 5-fold serial dilution across a total of 9 concentration gradients. Two replicate wells were set for each compound, and each plate could be used to test 3 compounds, with the DMSO content controlled within 0.5%. • 4) The culture medium was replenished once every three days with a complete medium containing the same concentration of the test compound, with 20 μL/well added each time.
After 10 days of incubation with the compound, the cell culture plate was taken out, and the CellTiter-Glo® reagent was added at 50 μL/well. […]

A short description of data set [2]: Pharmacokinetics in SD (Sprague Dawley) rats. The class given is in vivo. To be noted: rat, plasma, female SD rats; for half-life: read-out: T1/2 (half-life) (converted). The protocol:
Test Example 3: Determination of Pharmacokinetic Data of Compounds in SD (Sprague Dawley) Rats
The pharmacokinetic characteristics of some of the compounds of the present disclosure were evaluated by a pharmacokinetic experiment in SD rats.
Female SD rats aged 6-8 weeks from Shanghai Jihui Laboratory Animal Care Co., Ltd. were selected. The test animals were fasted overnight before administration, and feeding was resumed 4 h after administration. The compounds were dissolved in 5% DMSO+5% Tween 80+90% normal saline. For a single intravenous administration, the administration dose was 1 mg/kg, and the administration volume was 2 mL/kg. For a single intragastric administration, the administration dose was 2 mg/kg, and the administration volume was 10 mL/kg. Blood was collected at 0.083 h (for intravenous administration only), 0.25 h, 0.5 h, 1 h, 2 h, 4 h, 8 h, and 24 h after administration. At each indicated time point, about 150 μL of blood sample was collected from each rat via the vein and placed into an EDTA-K2 tube. Each sample was centrifuged (2000 g, 4° C., 5 min) within 15 min after sample collection to obtain plasma, which was then stored at −70° C. until analysis. The concentration of the corresponding test compound in the SD rat plasma was determined using UPLC-MS/MS.

In the case of `COc1ccc2c(c1S(=O)(=O)Nc1noc3cc(Cn4cccn4)cc(Cl)c13)OCCO2` [Compound 34, N-(6-((1H-Pyrazol-1-yl)methyl)-4-chlorobenzo[d]isoxazol-3-yl)-6-methoxy-2,3-dihydrobenzo[b][1,4]dioxine-5-sulfonamide], the IC50 in data set [1] fell in the range of 2 to 10 nM.
With `COc1ccc2c(c1S(=O)(=O)Nc1noc3cc(Cn4cccn4)cc(OC)c13)OCC2(C)C` [Compound 20, N-(6-((1H-Pyrazol-1-yl)methyl)-4-methoxybenzo[d]isoxazol-3-yl)-6-methoxy-3,3-dimethyl-2,3-dihydrobenzofuran-7-sulfonamide], in data set [1], the IC50 lay in the range of 0.5 to 2 nM.
As to `COc1ccc2c(c1S(=O)(=O)Nc1noc3cc(Cn4cccn4)c(F)c(OC)c13)OCCC2(F)F` [Compound 104, N-(6-((1H-Pyrazol-1-yl)methyl)-5-fluoro-4-methoxybenzo[d]isoxazol-3-yl)-4,4-difluoro-7-methoxychromane-8-sulfonamide], in data set [1], the IC50 was below 0.5 nM. Moreover, in data set [2] (iv, i.v. 1 mg/kg), the AUC(0-inf) worked out at 4200 ng·h/mL and the half-life was 2.83 h. For the same molecule, in data set [2] (iv, i.v. 1 mg/kg, read-out: CL (clearance rate)), the clearance is 3.98 mL/min/kg. Further, the Vd in data set [2] (iv, i.v. 1 mg/kg, read-out: Vdss (apparent volume of distribution)) is 0.705 L/kg. In data set [2] (po, p.o. 2 mg/kg), the AUC(0-inf) turned out to be 6110 ng·h/mL and the half-life was 2.13 h. Besides, the bioavailability in data set [2] (po, p.o. 2 mg/kg, read-out: F (bioavailability)) turned out to be 72.7%.
For the molecule `COc1ccc2c(c1S(=O)(=O)Nc1noc3cc(Cn4cccn4)cc(OC)c13)OCCO2` [Compound 14, N-(6-((1H-Pyrazol-1-yl)methyl)-4-methoxybenzo[d]isoxazol-3-yl)-6-methoxy-2,3-dihydrobenzo[b][1,4]dioxine-5-sulfonamide], in data set [1], the IC50 was in the range of 0.5 to 2 nM.
As to `COc1cc(Cn2cccn2)cc2onc(NS(=O)(=O)c3ccccc3OC3CC(F)(F)C3)c12` [Compound 2, N-(6-((1H-Pyrazol-1-yl)methyl)-4-methoxybenzo[d]isoxazol-3-yl)-2-(3,3-difluorocyclobutoxy)benzenesulfonamide], in data set [1], the IC50 lay within 2 to 10 nM.
On the same count and under the same terms, for `COc1cccc(OC)c1S(=O)(=O)Nc1noc2cc(Cn3cccn3)cc(OC)c12` [PF-9363, reference compound] the value was 0.5 to 2 nM; for `COc1cccc(OC)c1S(=O)(=O)Nc1nsc2cc(Cn3cccn3)ccc12` [Compound 25, N-(6-((1H-Pyrazol-1-yl)methyl)benzo[d]isothiazol-3-yl)-2,6-dimethoxybenzenesulfonamide], at least 50 nM.
With `COc1cccc(OC)c1S(=O)(=O)Nc1noc2cc(Cn3cccn3)cc(OC(F)F)c12` [Compound 12, N-(6-((1H-Pyrazol-1-yl)methyl)-4-(difluoromethoxy)benzo[d]isoxazol-3-yl)-2,6-dimethoxybenzenesulfonamide], the IC50 in data set [1] lay within 2 to 10 nM.
With `COc1cccc(OC)c1S(=O)(=O)Nc1noc2cc(Cn3cccn3)c(F)c(OC)c12` [PF-0128, reference compound], the IC50 in data set [1] lay in the range of 0.5 to 2 nM.
As for `COc1ccc2c(c1S(=O)(=O)Nc1noc3cc(Cn4cccn4)c(F)c(OC)c13)OCCN2` [Compound 111, N-(6-((1H-Pyrazol-1-yl)methyl)-5-fluoro-4-methoxybenzo[d]isoxazol-3-yl)-7-methoxy-3,4-dihydro-2H-benzo[b][1,4]oxazine-8-sulfonamide], the IC50 in data set [1] was below 0.5 nM.
`COc1ccc2c(c1S(=O)(=O)Nc1noc3cc(Cn4cccn4)cc(OC)c13)OCO2` [Compound 17, N-(6-((1H-Pyrazol-1-yl)methyl)-4-methoxybenzo[d]isoxazol-3-yl)-5-methoxybenzo[d][1,3]dioxole-4-sulfonamide]: the IC50 in data set [1] was in the range of 0.5 to 2 nM.
As to `COc1ccc2c(c1S(=O)(=O)Nc1noc3cc(Cn4cccn4)c(F)c(OC)c13)OCCC2(C)C` [Compound 27, N-(6-((1H-Pyrazol-1-yl)methyl)-5-fluoro-4-methoxybenzo[d]isoxazol-3-yl)-7-methoxy-4,4-dimethylchromane-8-sulfonamide], the 50% inhibitory concentration (IC50) in data set [1] was below 0.5 nM.
Same read-out and setting: for `CC(C)(C)c1ccc(OC2CCC2)c(S(=O)(=O)Nc2noc3cc(Cn4cccn4)c(C4CC4)cc23)c1` [Compound 8, N-(6-((1H-Pyrazol-1-yl)methyl)-5-cyclopropylbenzo[d]isoxazol-3-yl)-5-(tert-butyl)-2-cyclobutoxybenzenesulfonamide] the value was 10 to 50 nM; for `COc1ccc2c(c1S(=O)(=O)Nc1noc3cc(Cn4cccn4)cc(OC)c13)OCCN2C` [Compound 41, N-(6-((1H-Pyrazol-1-yl)methyl)-4-methoxybenzo[d]isoxazol-3-yl)-7-methoxy-4-methyl-3,4-dihydro-2H-benzo[b][1,4]oxazine-8-sulfonamide], 0.5 to 2 nM.
On the same count and under the same terms, for `COc1ccc2c(c1S(=O)(=O)Nc1noc3cc(Cn4cccn4)c(F)c(Cl)c13)OCCC2(C)C` [Compound 31, N-(6-((1H-Pyrazol-1-yl)methyl)-4-chloro-5-fluorobenzo[d]isoxazol-3-yl)-7-methoxy-4,4-dimethylchromane-8-sulfonamide] the value was 0.5 to 2 nM.
As for `COc1ccc2c(c1S(=O)(=O)Nc1noc3cc(Cn4cccn4)c(F)c(OC)c13)OCCN2CC(F)(F)F` [Compound 120, N-(6-((1H-Pyrazol-1-yl)methyl)-5-fluoro-4-methoxybenzo[d]isoxazol-3-yl)-7-methoxy-4-(2,2,2-trifluoroethyl)-3,4-dihydro-2/-benzo[b][1,4]oxazine-8-sulfonamide], in data set [1], the IC50 lay in the range of 2 to 10 nM.

Usually IC50 stands for the midpoint of a concentration-inhibition curve. The term AUC(0-inf) denotes the area under the concentration-time curve extrapolated to infinity. In general, clearance refers to the rate of elimination divided by the concentration. The term bioavailability denotes the share of a dose that reaches the circulation, judged against a reference dose that is usually intravenous.
